Measured values taken from PMC11189555, “Aryl amino acetamides prevent Plasmodium falciparum ring development via targeting the lipid-transfer protein PfSTART1” (Nature Communications, 2024).
Several values for one entry are separate records, joined by “and”; a condition that tells them apart may be missing. Identical values can stand only once.

Test system: 3D7 P. falciparum parasites
Test: Growth inhibition assay (72 h, LDH activity)
Format: cell-based, Plasmodium falciparum
Settings: for sample/DMSO (growth inhibition vs DMSO, LDH): 3D7, 2.5 mM GlcN, biological replicates 1-4; for (av-uRBC) / (DMSO-uRBC) x100 / Growth inhibition, (1 - av / DMSO) x 100: 3D7; for Growth inhibition, (1 - av / DMSO) x 100: Fig 2B source data, per biological replicate
Protocol: Parasite growth assays with inhibitory compounds were performed as per[11] and are fully described in the Supplementary Information. […]
Growth inhibition assays. Synchronised ring-stage parasites (0.3-0.6% parasitemia, 2% haematocrit) were grown for 72 h in a serial-dilution of the compound under […]
and compound 4. Note that M-833 was first purchased from MolPort (MolPort -002-267-916) then made in-house at WEHI: the differences observed in EC50s across experiments are attributed to the different batches of M -833. For some experiments, 0, 0.25 or 2.5 mM of glucosamine (GlcN) was also added. Experiments were set up in technical duplicates or triplicates. Following a freeze -thaw cycle, lactate dehydrogenase (LDH) activity was assessed as an indicator of parasite growt h 5. 30 μL of parasite culture was incubated for 30 min in the dark with 75 μL Malstat mixture (0.1 M Tris pH 9.0, 20 g/L lactic acid, pH 7.5, 0.2% Triton-X100, 0.5 g/L acetylpyridine adenine dinucleotide (APAD, Sigma), 200 μg/mL nitroblue tetrazolium (NBT; Sigma), 1 μg/mL phenozine ethosulfate (PES; Sigma)). Absorbance was then measured at 650 nm, transformed using the formula below, plotted against the logarithm of the concentrations, and a non-linear regression (log(inhibitor) vs. response, variable slope) was calculated using GraphPad Prism to assess the half-inhibitory […]
Growth inhibition % = (1 − average(sample)− average(uRBC)) ∗ 100 […]
The DMSO samples were also used to assess growth of parasite in the presence of 0.25 and 2.5 mM GlcN (normalised by DMSO in 0 mM GlcN). […]

## Cc1cc(Cl)c(S(=O)(=O)N2CCCC2)cc1OCC(=O)NC1CCCCC1 [M-833]
M-833 0.00457247 uM
  sample/DMSO (growth inhibition vs DMSO, LDH): 2.378 and 5.032 and -5.671 and -4.085
M-833 0.0137174 uM
  sample/DMSO (growth inhibition vs DMSO, LDH): 17.2304 and 4.206 and -1.672 and 24.2341
M-833 0.0411523 uM
  sample/DMSO (growth inhibition vs DMSO, LDH): 38.9006 and 17.4059 and 1.86 and 27.5421
M-833 0.123457 uM
  sample/DMSO (growth inhibition vs DMSO, LDH): 56.4218 and 44.1266 and 25.1289 and 54.0055
M-833 0.37037 uM
  sample/DMSO (growth inhibition vs DMSO, LDH): 86.8658 and 83.833 and 67.9393 and 76.787
M-833 1.11111 uM
  sample/DMSO (growth inhibition vs DMSO, LDH): 92.389 and 94.7232 and 88.5258 and 88.1778
M-833 3.33333 uM
  sample/DMSO (growth inhibition vs DMSO, LDH): 94.0803 and 95.4726 and 90.5741 and 88.9113
3D7, M-833 0.0390625 uM
  Growth (Abs) Normalised to DMSO: 98.5985
3D7, M-833 0.078125 uM
  Growth (Abs) Normalised to DMSO: 87.6094
3D7, M-833 0.15625 uM
  Growth (Abs) Normalised to DMSO: 73.0137
3D7, M-833 0.3125 uM
  Growth (Abs) Normalised to DMSO: 46.3221
3D7, M-833 0.625 uM
  Growth (Abs) Normalised to DMSO: 13.1941
3D7, M-833 1.25 uM
  Growth (Abs) Normalised to DMSO: 5.1955
3D7, M-833 2.5 uM
  Growth (Abs) Normalised to DMSO: 3.473
3D7, M-833 5 uM
  Growth (Abs) Normalised to DMSO: 2.75
3D7, M-833 10 uM
  Growth (Abs) Normalised to DMSO: 1.893
conc. 3.04832 nM, Biological replicate 1 (2021-10-25)
  (av-uRBC) / (DMSO-uRBC) x100: 99.6118
conc. 3.04832 nM, Biological replicate 2 (2021-11-03)
  (av-uRBC) / (DMSO-uRBC) x100: 102.365
conc. 9.14495 nM, Biological replicate 1 (2021-10-25)
  (av-uRBC) / (DMSO-uRBC) x100: 98.5673
conc. 9.14495 nM, Biological replicate 2 (2021-11-03)
  (av-uRBC) / (DMSO-uRBC) x100: 104.012
conc. 27.4348 nM, Biological replicate 1 (2021-10-25)
  (av-uRBC) / (DMSO-uRBC) x100: 97.1981
conc. 27.4348 nM, Biological replicate 2 (2021-11-03)
  (av-uRBC) / (DMSO-uRBC) x100: 104.176
conc. 82.3045 nM, Biological replicate 1 (2021-10-25)
  (av-uRBC) / (DMSO-uRBC) x100: 86.0541
conc. 82.3045 nM, Biological replicate 2 (2021-11-03)
  (av-uRBC) / (DMSO-uRBC) x100: 97.3382
conc. 246.914 nM, Biological replicate 1 (2021-10-25)
  (av-uRBC) / (DMSO-uRBC) x100: 38.189
conc. 246.914 nM, Biological replicate 2 (2021-11-03)
  (av-uRBC) / (DMSO-uRBC) x100: 46.3664
conc. 740.741 nM, Biological replicate 1 (2021-10-25)
  (av-uRBC) / (DMSO-uRBC) x100: 13.3602
conc. 740.741 nM, Biological replicate 2 (2021-11-03)
  (av-uRBC) / (DMSO-uRBC) x100: 12.5985
conc. 2222.22 nM, Biological replicate 1 (2021-10-25)
  (av-uRBC) / (DMSO-uRBC) x100: 9.5843
conc. 2222.22 nM, Biological replicate 2 (2021-11-03)
  (av-uRBC) / (DMSO-uRBC) x100: 9.9758
conc. 6666.67 nM, Biological replicate 1 (2021-10-25)
  (av-uRBC) / (DMSO-uRBC) x100: 8.737
conc. 6666.67 nM, Biological replicate 2 (2021-11-03)
  (av-uRBC) / (DMSO-uRBC) x100: 9.539
conc. 20000 nM, Biological replicate 1 (2021-10-25)
  (av-uRBC) / (DMSO-uRBC) x100: 8.871
conc. 20000 nM, Biological replicate 2 (2021-11-03)
  (av-uRBC) / (DMSO-uRBC) x100: 7.978
3D7 replicate 1, M-833 0.0390625 uM
  Normalised to DMSO: 93.8526
3D7 replicate 1, M-833 0.078125 uM
  Normalised to DMSO: 78.1653
3D7 replicate 1, M-833 0.15625 uM
  Normalised to DMSO: 53.0058
3D7 replicate 1, M-833 0.3125 uM
  Normalised to DMSO: 31.7546
3D7 replicate 1, M-833 0.625 uM
  Normalised to DMSO: 15.6331
3D7 replicate 1, M-833 1.25 uM
  Normalised to DMSO: 6.894
3D7 replicate 1, M-833 2.5 uM
  Normalised to DMSO: 4.18
3D7 replicate 1, M-833 5 uM
  Normalised to DMSO: 4.492
3D7 replicate 1, M-833 10 uM
  Normalised to DMSO: 2.7005
3D7 replicate 2, M-833 0.0390625 uM (plate column as in replicate 1)
  Normalised to DMSO: 98.0943
3D7 replicate 2, M-833 0.078125 uM (plate column as in replicate 1)
  Normalised to DMSO: 69.2248
3D7 replicate 2, M-833 0.15625 uM (plate column as in replicate 1)
  Normalised to DMSO: 42.9307
3D7 replicate 2, M-833 0.3125 uM (plate column as in replicate 1)
  Normalised to DMSO: 17.4092
3D7 replicate 2, M-833 0.625 uM (plate column as in replicate 1)
  Normalised to DMSO: 12.6706
3D7 replicate 2, M-833 1.25 uM (plate column as in replicate 1)
  Normalised to DMSO: 9.0394
3D7 replicate 2, M-833 2.5 uM (plate column as in replicate 1)
  Normalised to DMSO: 8.2153
3D7 replicate 2, M-833 5 uM (plate column as in replicate 1)
  Normalised to DMSO: 8.679
3D7 replicate 2, M-833 10 uM (plate column as in replicate 1)
  Normalised to DMSO: 8.859
M-833 conc 0.00152416 (unit not given)
  Growth inhibition, (1 - av / DMSO) x 100: -18.032% and -5.346% and 12.6336%
M-833 conc 0.00457247 (unit not given)
  Growth inhibition, (1 - av / DMSO) x 100: -25.7702% and -5.3748% and 10.1353%
M-833 conc 0.0137174 (unit not given)
  Growth inhibition, (1 - av / DMSO) x 100: -26.0091% and 2.611% and 15.3938%
M-833 conc 0.0411523 (unit not given)
  Growth inhibition, (1 - av / DMSO) x 100: 13.4703% and 15.2318% and 31.5623%
M-833 conc 0.123457 (unit not given)
  Growth inhibition, (1 - av / DMSO) x 100: 53.3795% and 44.2845% and 58.2697%
M-833 conc 0.37037 (unit not given)
  Growth inhibition, (1 - av / DMSO) x 100: 86.6253% and 82.9734% and 89.4611%
M-833 conc 1.11111 (unit not given)
  Growth inhibition, (1 - av / DMSO) x 100: 95.3188% and 95.9852%
M-833 conc 3.33333 (unit not given)
  Growth inhibition, (1 - av / DMSO) x 100: 96.9668% and 96.3144% and 96.0397%
